Experimental data taken from patent US8680153B2, “Method for correcting a lipid imbalance in a subject” (The Royal Institution for the Advancement of …, priority 2005, dated 2014).

Key:
[1] = test system: osteoblasts and osteoclasts; assay: Osteoblast and osteoclast counts in femur (H&E, TRAP); type: in vivo, mice
Protocol: Fenretinide Diet Supplementation. Examples 2 to 6: fenretinide (Sigma-Aldrich, Oakville, ON) powder was resuspended in 95% ethanol and subsequently incorporated in the Peptamen liquid diet. It was protected from light and kept at 4° C. before being given to the mice (5 mg/kg per day per mouse). Mock-treated diets were prepared similarly by adding ethanol to the Peptamen diet but omitting the fenretinide supplementation. The diet was given every morning for 28 consecutive days with specific monitoring of the quantity consumed by the mice in each cage. Examples 7 to 12: fenretinide powder was kindly provided by Dr. Robert Smith (NIH; Bethesda, Md., USA). Fenretinide was resuspended in 95% ethanol to make a 2 μg/μL concentration. Approximately 40 μL of this preparation was incorporated into the Peptamen liquid diet (5 mg/kg per day per mouse). The prepared food containing fenretinide was then stored in the dark at 4° C. for no more than 3 hours prior to being administered to the mice. To ensure that the entire drug dose was consumed, the mice were given 10 mL of fenretinide-treated Peptamen, which represents ⅔ of the daily mouse food consumption, in the late afternoon. […] During the treatment period each mouse was kept in a separate cage (including WT mice) and was monitored to ensure that the entire amount of Peptamen containing the fenretinide or with out was consumed. […]

[2] = test system: P. aeruginosa; assay: Bacterial load (CFU) in the lungs of infected mice; type: in vivo
Protocol: P. aeruginosa Inoculum Preparation. In order to establish a model of prolonged lung infection, bacteria-impregnated agar beads were freshly prepared the day before each experiment according to established methods (Guilbault, et al. (2005) Laboratory Animals 39:336-352), and stored at 4° C. overnight. Briefly, the bacteria (P. aeruginosa strain 508) from an overnight culture were grown for approximately 3 hours in a shaking incubator at 37° C., until it reached a mid-log phase. The log-phase bacteria were concentrated and resuspended in 5 mL of Dulbecco's phosphate-buffered saline (PBS; INVITROGEN™, Mississauga, ON). A 5 mL aliquot of the concentrated bacterial broth was added to 52° C. 1.5% trypticase soy agar (DIFCO®, Detroit, Mich.) (agarose beads free of bacteria were prepared using PBS instead of a bacterial suspension). This mixture was quickly added to 52° C. heavy mineral oil and stirred rapidly, first at room temperature for 6 minutes, followed by ice cooling with continuous stirring for 10 minutes. The oil-agar mixture was centrifuged to sediment the beads. The beads were washed with PBS and their size was verified microscopically and only those preparations containing beads predominantly 100-250 micrometers in diameter were used as inoculum. Inoculum was prepared by diluting the beads suspension to 1×10^6 CFUs per 50 μl (injection volume).
Mouse Lung Infection. Mice were anaesthetized with a combination of ketamine (7.5 mg/mL) and xylazine (0.5 mg/mL) administered intraperitoneally at a dose of 20 mL/kg of body weight. Once the mouse was successfully anaesthetized, the animal was installed under binoculars (Microscope M650, Wild Leitz, Willowdale, ON) in the vertical position and held on a restraining board by holding the animal by its upper incisor teeth (Guilbault, et al. (2005) supra). […] Mice were monitored 3 times daily; the maximum weight loss allowed was 15%. […]
Lung Homogenates. […] The number of CFU per lung was counted after overnight incubation at 37° C. […]

Q: With `CC1=C(/C=C/C(C)=C/C=C/C(C)=C/C(=O)Nc2ccc(O)cc2)C(C)(C)CCC1` [fenretinide, all-trans-N-(4-hydroxyphenyl) retinamide] as the compound, how does the “Number of osteoclasts, treated vs untreated” value ([1]; Cftr-KO and WT mice) read?
A: No significant difference

Q: And the “Amount of osteoblasts vs untreated Cftr-KO” value ([1]; Cftr-KO mice, p<0.05)?
A: increase

Q: What about the “Decrease of median number of bacteria vs untreated Cftr-KO” value ([2]; Cftr-KO mice, day 3 post-infection) of the same compound?
A: about 10 fold

Q: What about the “Median bacterial load in the lungs” value ([2]; fenretinide-treated Cftr-KO mice, day 3 post-infection, p=0.004 vs untreated) of the same compound?
A: 3.8×10^4 CFU/lung

Q: And the “Effect on median number of bacteria in the lungs vs untreated infected controls” value ([2]; wild-type mice, p=0.240)?
A: no significant effect
